Values quoted from earlier work as cited in patent publication US12565477B2, “Preparation method for chlorinated compound” (JIANGSU KANION PHARMACEUTICAL CO., LTD., priority 2020, dated 2026).
Entries after “also recorded” stand apart in the source; their conditions may differ. Read-outs that look alike come from different tables or passages of the source.

Tests used:
[1] = human; for Percentage of administered dose: 0-144 h, after Lesinurad; for Metabolites found in humans after Lesinurad administration (in words): clinical data
[2] = Hepatocyte, Rat, in vitro
[3] = Hepatocyte, Dog, in vitro
[4] = Liver microsome, Monkey, in vitro
URAT1 = target: T1, URAT1 (Homo sapiens, UniProt Q96S37)
T1 construct: URAT1 is an important kidney anion transporter located on the brush border membrane of epithelial cells of renal tubules; host or cells: kidney of treated patients (endogenous)
T1 sequence (Q96S37 1-553): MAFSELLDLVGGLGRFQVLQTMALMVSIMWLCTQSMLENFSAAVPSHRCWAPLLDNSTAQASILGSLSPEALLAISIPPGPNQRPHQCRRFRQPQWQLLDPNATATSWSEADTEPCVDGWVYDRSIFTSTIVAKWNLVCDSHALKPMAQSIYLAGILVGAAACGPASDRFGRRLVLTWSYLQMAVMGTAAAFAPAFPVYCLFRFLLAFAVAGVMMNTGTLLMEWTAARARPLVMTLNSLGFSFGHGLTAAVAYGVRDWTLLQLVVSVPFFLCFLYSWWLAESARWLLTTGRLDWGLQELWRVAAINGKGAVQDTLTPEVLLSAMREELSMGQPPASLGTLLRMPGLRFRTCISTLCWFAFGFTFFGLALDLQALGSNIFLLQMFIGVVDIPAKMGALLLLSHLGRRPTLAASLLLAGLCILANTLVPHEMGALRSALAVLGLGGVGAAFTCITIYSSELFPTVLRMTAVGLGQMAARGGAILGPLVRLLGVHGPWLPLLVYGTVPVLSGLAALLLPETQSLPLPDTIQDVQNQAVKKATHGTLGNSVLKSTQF

[5] = Liver microsome, Dog, in vitro
[6] = Hepatocyte, Monkey, in vitro
[7] = Liver microsome, Human, in vitro
[8] = Liver microsome, Rat, in vitro
[9] = Hepatocyte, Human, in vitro

| Percentage of administered dose ([1]; Feces) [%] | Percentage of administered dose ([1]; Urine) [%] | Share of M3, M4 and Lesinurad detected (Total 100) [2] | Share of M3, M4 and Lesinurad detected (Total 100) [3] | Share of M3, M4 and Lesinurad detected (Total 100) [4] [%] | Additional effect of combined medication versus xanthine oxidase inhibitor alone (URAT1; Lesinurad 200 mg/day with XOI) | Additional effect of combined medication (URAT1; Lesinurad 400 mg/day (high dose) with XOI) | Share of M3, M4 and Lesinurad detected (Total 100) [5] [%] | Share of M3, M4 and Lesinurad detected (Total 100) [6] [%] | Share of M3, M4 and Lesinurad detected (Total 100) [7] [%] | Share of M3, M4 and Lesinurad detected (Total 100) [8] [%] | Share of M3, M4 and Lesinurad detected (Total 100) [9] [%] | SMILES | Metabolites found in humans after Lesinurad administration (in words) [1] | Toxic side effects (kidney-related adverse events, especially kidney stone) (URAT1; Lesinurad 400 mg/day) |
| --- | --- | --- | --- | --- | --- | --- | --- | --- | --- | --- | --- | --- | --- | --- |
| 0.3 | 12.0 | not detected | not detected | 7.9 | – | – | – | – | – | – | – | O=C(O)CSc1nnc(Br)n1-c1ccc(C2(O)CC2)c2ccccc12 [Compound M3] | most predominant metabolites | – |
| 1.5 | 31.3 | 100% | 100% | 92.1 | not very significant | higher additional effect | 100 | 98.1 | 100 | 100 | 92.1 | O=C(O)CSc1nnc(Br)n1-c1ccc(C2CC2)c2ccccc12 [Lesinurad] | – | significantly increased toxic side effects |
| 3.6 | – | – | – | – | – | – | – | – | – | – | – | O=C(O)CSc1nncn1-c1ccc(C2(O)CC2)c2ccccc12 [Compound M5] | – | – |
| 5.0 | 15.7 | not detected | not detected | – | – | – | – | – | – | – | – | O=C(O)CSc1nnc(Br)n1-c1ccc(C2CC2)c2c1C=CC(O)C2O (stereo not drawn) [Compound M4] | specifically detected in human metabolites; also recorded: most predominant metabolites | – |
| 4.8 | 0.3 | – | – | – | – | – | – | – | – | – | – | O=C(O)CSc1nncn1-c1ccc(C2CC2)c2ccccc12 [Compound M2] | – | – |
